According to paper PMC5824344 (ACS Chemical Biology, 2017):

Columns and labels:
[1] = molecular target: T1, human lysosomal α-glucosidase (Homo sapiens, UniProt P10253); assay: Inhibition of human lysosomal α-glucosidase (α-p-nitrophenylglucoside substrate); format: biochemical; details: for IC50: isolated enzyme in vitro, mean of three measurements, read-out: IC50, α-Glucosidase, Human lysosome
T1 construct: purchased Sanofi Genzyme

[2] = test system: GluI and GluII in primary human monocyte-derived macrophages (MDMΦ); assay: Free oligosaccharide (FOS) assay in primary monocyte-derived macrophages; format: cell-based; details: naive MDMΦ
Protocol: (§1) 5 Cell and Virus Culture and Assays
(§2) 5.1 Culture of Cell Lines
(§3) The human hepatoma cell line Huh7.5 (Apath, LLC) was cultured in Dulbecco’s modiﬁed Eagle medium (DMEM) with Glutamax (Gibco) supplemented with 100 µg mL−1 strepto-mycin (Sigma), 100 U mL−1 penicillin (Sigma), 100 µm MEM non-essential amino acids (Gibco) and 10% (volume/volume, v/v) heat-inactivated (56 ◦C, 30 min) fetal calf serum (FCS, Seralab). The human monocytic cell line HL60 (ATCC), human T lymphocyte cell line Jurkat (ATCC), and human B lymphocyte cell line Raji (ATCC) were each maintained in RPMI 1640 media with Glutamax (Gibco) supplemented with 100 µg mL−1 streptomycin, 100 U mL−1 penicillin and 10% (v/v) FCS. […]
(§4) Cell viability was measured using the CellTiter 96 R© AQueous One Solution Cell Prolifera-tion MTA (3-(4,5-dimethylthiazol-2-yl)-5-(3-carboxymethoxyphenyl)-2-(4-sulfophenyl)-2H - […]
(§5) After a further one to two hour incubation, the absorbance at 490 nm was measured on a Molecular Devices SpectraMax M5 microplate reader. […]
(§6) Absorbances were averaged across replicates, and corrected for background by subtracting the value for media-only wells. Each drug treatment was then evaluated as a percentage of untreated cells. […]
FOS analysis was carried out as described previously. […] Before purifying the FOS, each sample was analyzed for protein content using the modiﬁed Bradford assay. […]

[3] = test system: GluI and GluII in human hepatoma Huh7.5 cells; assay: Free oligosaccharide (FOS) assay in Huh7.5 cells; format: cell-based; details: naive Huh7.5 cells, 48 h, 50 µm
Protocol: as §1, §2
as §3, with “FCS. The monkey kidney cell line LLC-MK2 (a gift from Armed Forces Research Institute of Medical Sciences, Thailand) was cultured in M199 media (Gibco) supplemented with 2 mm l-glutamine, 100 µg mL−1 streptomycin, 100 U mL−1 penicillin and 20% (v/v) FCS. Subsequently, these are referred to as growth media for each cell line. Unless otherwise indicated, all cell incubations were carried out at 37 ◦C and 5% CO2.” for “FCS.”
as §4, §5, §6
FOS analysis was carried out as described previously. […] Before purifying the FOS, each sample was analyzed for protein content using the modiﬁed Bradford assay. […] The labelled glycans were then analyzed by normal phase high performance liquid chromatography. Retention times and peak area were used to identify and quantify glycans, respectively, by comparison to standards of known identity and molar quantity. FOS quantities were normalized to protein levels.

Rat intestinal maltase = assay: Inhibition of rat intestinal maltase (natural substrate, glucose release); format: biochemical; details: for IC50: isolated enzyme in vitro, mean of three measurements, read-out: IC50, α-Glucosidase, Rat intestinal maltase
Protocol: 4 Enzyme Inhibition Assays
All rat enzymes were isolated from 18-week-old, male Wistar rats, while human lysosomal α-glucosidase was obtained in commercially available form from Sanoﬁ Genzyme. Inhibition of isolated glucosidases was evaluated as described previously. 3 Brieﬂy, maltase, isomaltase, sucrase, and cellobiase were used as partially puriﬁed tissue extracts. Inhibition assays for each enzyme were performed with the respective natural substrate, and release of d-glucose measured by Glucose B-test (Wako Diagnostics). Assays of rat ER α-glucosidase II and human lysosomal α-glucosidase inhibition were conducted with α-p-nitrophenylglucoside as substrate; 400 mm Na2CO3 was added to quench these reactions, and the extent of hydrolysis was evaluated as absorbance at 400 nm by spectrophotometer.
ER α-glucosidase I inhibition assays were performed using anthranilic acid-labelled Glc3Man7GlcNAc2 as substrate. After terminating the reaction with acetonitrile, protein was removed by cen-trifugation through a 10 kDa molecular weight cut oﬀ ﬁlter. The amount of hydrolysis was then quantiﬁed by normal phase high performance liquid chromatography analysis of unreacted substrate and product (Glc2Man7GlcNAc2).4
ER α-glucosidase II inhibition assays using native-like substrates were performed using an-thranilic acid-labelled Glc2Man7GlcNAc2 as substrate. After terminating the reaction with acetonitrile, protein was removed by centrifugation through a 10 kDa molecular weight cut oﬀ ﬁlter. The amount of hydrolysis was then quantiﬁed by normal phase high performance liq-uid chromatography analysis of unreacted substrate and both products (Glc1Man7GlcNAc2

| SMILES | IC50 [1] [nM] | glucosylated free oligosaccharides (FOS) observed after treatment [2] | glucosylated free oligosaccharides (FOS) observed after treatment [3] | IC50 (Rat intestinal maltase) [nM] | inhibition at 50 µM ([1]; 50 μM, read-out: inhibition of lysosomal glucosidase at the maximum tested concentration) [%] | glucosylated free oligosaccharides (FOS) observed after treatment ([3]; listed as ToP-DNJ 4) | inhibition of intestinal maltase at the maximum tested concentration (Rat intestinal maltase; 50 μM) |
| --- | --- | --- | --- | --- | --- | --- | --- |
| CCCCN1CC(O)C(O)C(O)C1CO [Compound 2, N-butyl-D-1-deoxynojirimycin, reference compound] | 2100 | mono- and triglucosylated FOS were observed | inhibits both enzymes | 1700 | – | – | – |
| Cc1c(C)c2c(c(C)c1OCCCCCN1CC(O)C(O)C(O)C1CO)CCC(C)(CCCC(C)CCCC(C)CCCC(C)C)O2 (centres unmarked) [Compound 4, 5′-tocopheroxypentyl-DNJ] | > 50000 | Only monoglucosylated FOS accumulated | no glucosylated FOS were observed | > 50000 | < 50 | no glucosylated FOS were detected | less than 50% |
